Data: ChEMBL document CHEMBL4837235, “Cyclic Imine Pinnatoxin G is Cytotoxic to Cancer Cell Lines via Nicotinic Acetylcholine Receptor-Driven Classical Apoptosis” (2021)
Activity calls are given as the source filed them. The rule behind the calls is not given here.

Legend:
[1] = test system: PC-3; assay: Cytotoxicity against human PC-3 cells assessed as reduction in cell viability at 5 uM after 72 hrs by MTT assay; format: functional
[2] = test system: MDA-MB-231; assay: Cytotoxicity against human MDA-MB-231 cells assessed as reduction in cell viability at 5 uM after 72 hrs by MTT assay; format: functional
[3] = test system: U-87 MG; assay: Cytotoxicity against human U87 cells assessed as reduction in cell viability at 5 uM after 72 hrs by MTT assay; format: functional, U-87MG ATCC
[4] = test system: LN-18; assay: Cytotoxicity against human LN-18 cells assessed as reduction in cell viability at 5 uM after 72 hrs by MTT assay; format: functional
[5] = Cytotoxicity against human U373 cells assessed as reduction in cell viability at 5 uM after 72 hrs by MTT assay; format: functional, U-373MG ATCC; conditions: U373 MG
[6] = test system: HT-29; assay: Cytotoxicity against human HT-29 cells assessed as reduction in cell viability at 5 uM after 72 hrs by MTT assay; format: functional
[7] = test system: MDA-MB-231; assay: Cell cycle arrest in human MDA-MB-231 cells assessed as accumulation of cells at G0/G1 phase at 5 uM after 72 hrs by propidium iodide staining based flow cytometric analysis (reference value: 57.7+/- 0.6%); format: functional
[8] = test system: PC-3; assay: Cell cycle arrest in human PC-3 cells assessed as accumulation of cells at G0/G1 phase at 5 uM after 72 hrs by propidium iodide staining based flow cytometric analysis (reference value: 59.7+/- 0.2%); format: functional
[9] = test system: HT-29; assay: Cell cycle arrest in human HT-29 cells assessed as accumulation of cells at S phase at 5 uM after 72 hrs by propidium iodide staining based flow cytometric analysis (reference value: 5.3+/- 0.4%); format: functional
[10] = test system: HT-29; assay: Cell cycle arrest in human HT-29 cells assessed as accumulation of cells at G2/M phase at 5 uM after 72 hrs by propidium iodide staining based flow cytometric analysis (reference value: 22.3+/- 0.4%); format: functional
[11] = test system: MDA-MB-231; assay: Cell cycle arrest in human MDA-MB-231 cells assessed as accumulation of cells at subG1 phase at 5 uM after 72 hrs by propidium iodide staining based flow cytometric analysis (reference value: 1.1+/- 0.1%); format: functional
[12] = test system: HT-29; assay: Cell cycle arrest in human HT-29 cells assessed as accumulation of cells at subG1 phase at 5 uM after 72 hrs by propidium iodide staining based flow cytometric analysis (reference value: 1.9+/- 0.1%); format: functional
[13] = test system: PC-3; assay: Cell cycle arrest in human PC-3 cells assessed as accumulation of cells at subG1 phase at 5 uM after 72 hrs by propidium iodide staining based flow cytometric analysis (reference value: 3.7+/- 0.2%); format: functional
[14] = test system: MDA-MB-231; assay: Induction of apoptosis in human MDA-MB-231 cells assessed as caspase activation using Ac-DEVD-AMC as substrate at 5 uM measured after 72 hrs by fluorometric assay relative to control; format: functional
[15] = test system: PC-3; assay: Induction of apoptosis in human PC-3 cells assessed as caspase activation using Ac-DEVD-AMC as substrate at 5 uM measured after 72 hrs by fluorometric assay relative to control; format: functional
[16] = test system: HT-29; assay: Induction of apoptosis in human HT-29 cells assessed as caspase activation using Ac-DEVD-AMC as substrate at 5 uM measured after 72 hrs by fluorometric assay relative to control; format: functional
[17] = test system: MDA-MB-231; assay: Induction of apoptosis in human MDA-MB-231 cells assessed as early apoptosis at 5 uM measured after 72 hrs by AnnexinV/propidium iodide staining based flow cytometry; format: functional
[18] = test system: HT-29; assay: Induction of apoptosis in human HT-29 cells assessed as early apoptosis at 5 uM measured after 72 hrs by AnnexinV/propidium iodide staining based flow cytometry; format: functional
[19] = test system: PC-3; assay: Induction of apoptosis in human PC-3 cells assessed as early apoptosis at 5 uM measured after 72 hrs by AnnexinV/propidium iodide staining based flow cytometry; format: functional
[20] = test system: MDA-MB-231; assay: Induction of mitochondrial membrane permeability in human MDA-MB-231 cells assessed as mitochondrial membrane permeability at 5 uM measured after 72 hrs by TMRE staining based analysis (reference value: 7%); format: functional
[21] = test system: HT-29; assay: Induction of mitochondrial membrane permeability in human HT-29 cells assessed as mitochondrial membrane permeability at 5 uM measured after 72 hrs by TMRE staining based analysis (reference value: 7%); format: functional
[22] = test system: PC-3; assay: Induction of mitochondrial membrane permeability in human PC-3 cells assessed as mitochondrial membrane permeability at 5 uM measured after 72 hrs by TMRE staining based analysis (reference value: 7%); format: functional
[23] = target: T1, Neuronal acetylcholine receptor (Homo sapiens) (UniProt P17787+P30926+P32297+P43681+Q15822+Q9UGM1+Q15825+P30532+P36544+Q9GZZ6+Q05901); assay: Antagonist activity at nAChR in human MDA-MB-231 cells assessed as reduction cytoplasmic free calcium level at 5 uM measured upto 6 hrs by Fura2-AM dye based fluorescence assay; format: cell-based; conditions: time hrs <=6
[24] = target: T1, Neuronal acetylcholine receptor (Homo sapiens); assay: Antagonist activity at nAChR in human HT-29 cells assessed as reduction in cytoplasmic free calcium level at 5 uM measured upto 6 hrs by Fura2-AM dye based fluorescence assay; format: cell-based; conditions: time hrs <=6
[25] = target: T1, Neuronal acetylcholine receptor (Homo sapiens); assay: Antagonist activity at nAChR in human PC-3 cells assessed as reduction in cytoplasmic free calcium level at 5 uM measured upto 6 hrs by Fura2-AM dye based fluorescence assay; format: cell-based; conditions: time hrs <=6
[26] = test system: N2a; assay: Cytotoxicity against mouse Neuro2a cells assessed as cell viability at 0.46 uM measured after 72 hrs by MTT assay; format: functional, cell-based
[27] = test system: Caco-2; assay: Cytotoxicity against human Caco-2 cells assessed as cell viability at 0.46 uM measured after 72 hrs by MTT assay; format: functional, cell-based
[28] = test system: HeLa; assay: Cytotoxicity against human HeLa cells assessed as loss of cell viability at 5.76 uM measured after 72 hrs by MTT assay; format: functional
[29] = test system: MDA-MB-231; assay: Cell cycle arrest in human MDA-MB-231 cells assessed as decrease in accumulation of cells at G2/M phase at 5 uM after 72 hrs by propidium iodide staining based flow cytometric analysis; format: functional
[30] = test system: PC-3; assay: Cell cycle arrest in human PC-3 cells assessed as decrease in accumulation of cells at G2/M phase at 5 uM after 72 hrs by propidium iodide staining based flow cytometric analysis; format: functional
[31] = test system: PC-3; assay: Cytotoxicity against human PC-3 cells assessed as reduction in cell viability at 5 uM after 48 to 72 hrs by MTT assay; format: functional, cell-based; conditions: time 48-72 hrs
[32] = test system: MDA-MB-231; assay: Cytotoxicity against human MDA-MB-231 cells assessed as reduction in cell viability at 5 uM after 48 to 72 hrs by MTT assay; format: functional, cell-based; conditions: time 48-72 hrs
[33] = test system: U-87 MG; assay: Cytotoxicity against human U87 cells assessed as reduction in cell viability at 5 uM after 24 to 72 hrs by MTT assay; format: functional, cell-based; conditions: U-87MG ATCC, time 24-72 hrs
[34] = test system: LN-18; assay: Cytotoxicity against human LN-18 cells assessed as reduction in cell viability at 5 uM after 24 to 72 hrs by MTT assay; format: functional, cell-based; conditions: time 24-72 hrs
[35] = test system: U-373MG ATCC; assay: Cytotoxicity against human U373 cells assessed as reduction in cell viability at 5 uM after 24 to 72 hrs by MTT assay; format: functional, cell-based; conditions: time 24-72 hrs
[36] = test system: HT-29; assay: Cytotoxicity against human HT-29 cells assessed as reduction in cell viability at 5 uM after 24 to 72 hrs by MTT assay; format: functional, cell-based; conditions: time 24-72 hrs
[37] = test system: PC-3; assay: Cytotoxicity against human PC-3 cells assessed as reduction in cell viability at 5 uM after 24 hrs by MTT assay; format: functional, cell-based
[38] = test system: MDA-MB-231; assay: Cytotoxicity against human MDA-MB-231 cells assessed as reduction in cell viability at 5 uM after 24 hrs by MTT assay; format: functional, cell-based

With `C=CC1=C[C@@H]2[C@@H]3O[C@]4(C[C@H]5CCC[C@@]6(CC[C@@]7(O[C@@H](CC[C@@]7(C)O)CC(=C)CCCC7=NC[C@H](C)[C@@H](C)C[C@@]72CC1)O6)O5)C[C@@H](C)[C@@H](O)[C@H]3O4` the inhibition at 5 µM [1] was 30%, the inhibition at 5 µM [2] was 30% and the inhibition at 5 µM [3] was 30%. The inhibition at 5 µM [4] was 50%, the inhibition at 5 µM [5] was 50% and the inhibition at 5 µM [6] was 50%. The Activity [7] was 62.4%, the Activity [8] was 65.4% and the Activity [9] was 8%. For the same compound, the Activity [10] was 32.5%, the Activity [11] was 4.5% and the Activity [12] was 5.5%. The Activity [13] was 9.7%, the “fold change (FC)” value [14] was 5.5 and the “fold change (FC)” value [15] was 5.5. For the same compound, the “fold change (FC)” value [16] was 10.5, the Activity [17] was 13.7% and the Activity [18] was 10.7%. The Activity [19] was 13.9%, the Activity [20] was 14.8% and the Activity [21] was 17.9%. For the same compound, the Activity [22] was 13.8%, the inhibition [23] was 23.6% and the inhibition [24] was 16.2%. The inhibition [25] was 14.2%, the Activity [26] was “inactive” and the Activity [27] was “inactive”. For the same compound, the Activity [28] was 27%, the Activity [29] was “Active” and the Activity [30] was “Active”. For the same compound, the Activity [31] was “Active”, the Activity [32] was “Active” and the Activity [33] was “Active”. The Activity [34] was “Active”, the Activity [35] was “Active” and the Activity [36] was “Active”. The Activity [37] was “inactive” and the Activity [38] was “inactive”.
